In patent US20180327354A1, “Unnatural Analogues of Calcitriol and Uses Thereof” (Vidasym, Inc., priority 2009, published 2018):
Entries after “also recorded” stand apart in the source; their conditions may differ. Where two headings read alike, the source gives them in different places.

Legend:
[1] = test system: CYP24A1; assay: CYP24A1 expression induction in HL-60 promyelocytic leukemia cells (real-time RT-PCR); assay type: cell-based; conditions: Homo sapiens; HL-60 cells, 24 h, mRNA normalized to GAPDH; Table 3 summary, some values average of 3 or more determinations; read-out: CYP24A1 EC50
Protocol: (§1) Some compounds were tested in HL-60 promyelocytic leukemia cells and a primary culture of human coronary artery smooth muscle cells (HCASMC) for CYP24A1 induction. It is well documented that CYP24A1 has a VDRE in its promoter region and is a specific target gene of VDR (Meyer et al., 2007, J Biol Chem 282: 22344-22352). […] Compounds also were tested in HCASMC for their effects in inducing VDR. To assess the suitability of a compound for modulating immune responses, compounds were tested in HL-60 for their effects in inducing CD14 expression. To assess the suitability of a compound for treating thrombosis, compounds also were tested in HCASMC for their effects in modulating thrombomodulin and thrombospondin-1.
(§2) Compounds are tested in human HL-60 promyelocytic leukemia cells to assess their potency in inducing the expression of CYP24A1 and CD14. HL-60 cells are cultured in IMDM supplemented with 20% heat-inactivated fetal bovine serum at 37° C. in a humidified 5% CO2-95% air atmosphere. Cells are plated into 6 well plates and treated with test agent for 24 h. Cells are lysed with the addition of 1 mL of Trizol and RNA prepared according to the manufacturer's protocol.
(§3) Real-time reverse transcription-PCR is performed with the forward and reverse PCR primers and 250 nM of the TAQMAN™ probe specifically designed for CYP24A1 or CD14. (A TAQMAN™ probe is comprised of a fluorophore covalently attached to the 5′-end of the oligonucleotide probe and a quencher at the 3′-end.) After the data acquisition, the CYP24A1 or CD14 mRNA expression level is normalized to the GAPDH mRNA level. FIGS. 2A and 2B show the results from a typical CYP24A1 (FIG. 2A) and CD14 (FIG. 2B) expression study.

[2] = test system: CD14; assay: CD14 expression induction in HL-60 promyelocytic leukemia cells (real-time RT-PCR); assay type: cell-based; conditions: Homo sapiens; HL-60 cells, 24 h, mRNA normalized to GAPDH; Table 3 summary, some values average of 3 or more determinations; read-out: CD14 EC50
Protocol: as §1, §2, §3

[3] = Maximal absorbance wavelength and extinction coefficient (spectrophotometer scan); assay type: physicochemical; conditions: 100 μM in 50:50 de-ionized water and ethanol; for extinction coefficient: in M-1·cm-1 (unit assumed)
Protocol: To determine the maximal absorbance wavelength (ODmax) and the extinction coefficients for the compounds, each compound is diluted in a 50:50 solution (by volume) of de-ionized water and ethanol at 100 μM and scanned by a spectrophotometer.

[4] = test system: uremic rats; conditions: cited from earlier work
[5] = test system: normal mice; assay: Hypercalcemic side effect profile and serum PTH in normal mice; assay type: in vivo, Male C57/BL mice; conditions: for dose at which compound starts to raise serum Ca: i.p. dosing once daily for 3 consecutive days
Protocol: The normal mice model is a convenient and quick way to assess the hypercalcemic side effect profile of compounds. At the same time, data on serum PTH can be collected.
Male C57/BL mice at 18-20 g are dosed with the test agent at 100 al/mouse (concentrations as indicated) i.p. once daily for 3 consecutive days or at 10 ml/kg, p.o. gavage, once daily for 5 days. The animals were harvested 24 h after the last dose by anesthetization with ketamine/xylazine. Blood was collected from the aorta. Serum total calcium was measured using the QuantiChrom Calcium Assay kit and/or the Roche Hitachi 912 Chemistry Analyzer. Serum PTH was measured using a PTH Immunoassay. Vehicle control was 100 l/mouse of 5% EtOH/95% propylene glycol for i.p. dosing or 10 ml/kg of 20% Hydroxypropyl-β-Cyclodextrin for p.o. gavage dosing.
For serum chemistry data, group mean±SEM are presented. Differences between vehicle and compound-treated groups are assessed using a one-way ANOVA followed by a Dunnett's post-hoc test. FIGS. 3A and 3B show the results from a typical p.o. gavage dosing study (n=4-9 per group).

[6] = test system: CYP24A1; assay: CYP24A1 expression induction in primary culture of human coronary artery smooth muscle cells; assay type: cell-based; conditions: HCASMC, 24 h, Table 4 summary, some values average of 2 or more determinations, read-out: EC50 for CYP24A1 induction
Protocol: (§4) Compounds were tested in a primary culture of HCASMC to assess their potency in inducing the expression of CYP24A1 and VDR.
(§5) Primary culture of HCASMC was grown in smooth muscle growth medium SmGM-2 containing 5.5 mM glucose, 5% FBS, 50 μg/ml gentamicin, 50 ng/ml amphotericin-B, 5 μg/ml insulin, 2 ng/ml hFGF, and 0.5 ng/ml hEGF at 37° C. in a humidified 5% CO2-95% air. Cells were grown to >80% confluence and used within five passages.
(§6) Cells were plated into 6 well plates and treated with test agent for 24 h. Cells were lysed with the addition of 1 mL of Trizol and RNA prepared according to the manufacturer's protocol.
(§7) Real-time reverse transcription-PCR was performed with the forward and reverse PCR primers and […] of the TAQMAN™ probe specifically designed for CYP24A1 or VDR. (A TAQMAN™ probe is comprised of a fluorophore covalently attached to the 5′-end of the oligonucleotide probe and a quencher at the 3′-end.) After the data acquisition, the CYP24A1 or VDR mRNA expression level was normalized to the GAPDH mRNA level. […] Group mean±STDEV (standard deviation) are presented.

[7] = test system: VDR; assay: VDR expression induction in primary culture of human coronary artery smooth muscle cells; assay type: cell-based; conditions: HCASMC, 24 h, Table 4 summary, some values average of 2 or more determinations, read-out: EC50 for VDR induction
Protocol: as §4, §5, §6, §7

[8] = test system: thrombospondin-1; assay: Thrombospondin-1 protein in human coronary artery smooth muscle cells (Western blot); assay type: cell-based; conditions: HCASMC, 48 h, FIG. 21A
Protocol: (§8) Human coronary artery smooth muscle cells (HCASM) were incubated with Vida-5 or Vida-11 at different concentrations for 48 h and then were solubilized in 50 al of SDS-PAGE sample buffer. The protein content in each sample was determined by the bicinchoninic acid protein assay. Samples were resolved by SDS-PAGE using a 4-12% NuPAGE gel, and proteins were electrophoretically transferred to polyvinylidene fluoride membrane for Western blotting. The membrane was blocked for 1 h at 25° C. with 5% nonfat dry milk in phosphate buffered saline Tween-20 (PBS-T) and then incubated with a mouse anti-thrombospondin-1 monoclonal antibody (2,000-fold dilution), or a mouse anti-TM monoclonal antibody (2,000-fold dilution) in PBS-T overnight at 4° C.
(§9) The membrane was washed with PBS-T and incubated with a horseradish peroxidase-labeled anti-mouse antibody for 1 h at 25° C. The membrane was then incubated with Amersham ECL Plus Western Blotting Detection Reagents. Specific bands were visualized by the Multiimage II of Alpha Innotech imaging system. Band intensity was quantified using Spot Denso.

[9] = test system: thrombomodulin; assay: Thrombomodulin protein in human coronary artery smooth muscle cells (Western blot); assay type: cell-based; conditions: HCASMC, 48 h, FIG. 21B
Protocol: as §8, §9

[10] = Slatopolsky et al., 1998, converted from ng/rat

maximal absorbance wavelength [3] [nm]	extinction coefficient [3]	Structure (SMILES)	EC50 [1] [nM]	EC50 [2] [nM]	dose at which compound starts to raise serum Ca [5] [µg/kg]	also measured
254	26850	C=C1[C@H](O)CC(=C/C=C2\CCC[C@]3(C)[C@@H]([C@H](C)COc4ccccc4)CC[C@@H]23)C[C@H]1O [Vida-36, (1R,3R)-5-((E)-2-((1R,3αS,7αR)-7α-methyl-1-((S)-1-phenoxypropan-2-yl)dihydro-1H-inden-4(2H, 5H, 6H, 7H, 7αH)-ylidene)ethylidene)-2-methylenecyclohexane-1,3-diol]	249000	34000	–	–
–	–	C=C1/C(=C\C=C2/CCC[C@]3(C)[C@@H]([C@H](C)CCCC(C)(C)O)CC[C@@H]23)C[C@@H](O)C[C@@H]1O [calcitriol, 1,25-dihydroxyvitamin D3]	–	–	–	dose at which compound raises serum Ca [4, 10]: ~0.01 µg/kg; dose at which compound starts to suppress serum PTH [4, 10]: ~0.02 µg/kg; dose at which compound raises serum Ca ([4]; Slatopolsky et al., 1998): 4 ng/rat; dose at which compound starts to suppress serum PTH ([4]; Slatopolsky et al., 1998): 8 ng/rat
–	–	C[C@@H](CSc1cccc(C(C)(C)O)c1)C1CCC2/C(=C/C=C3C[C@@H](O)C4(CC4)[C@H](O)C3)CCCC21C (stereo partly drawn) [Vida-58, (4R,8R)-6-((E)-2-(1-((R)-1-(3-(2-hydroxypropan-2-yl)phenylthio)propan-2-yl)-7α-methyldihydro-1H-inden-4(2H,5H,6H, 7H, 7αH)-ylidene)ethylidene)spiro[2.5]octane-4,8-diol]	49	125	–	–
253	58710	C=C1[C@H](O)CC(=C/C=C2\CCCC3(C)C2CCC3[C@@H](C)OCCCC(O)(CC)CC)C[C@H]1O (stereo partly drawn) [Vida-21, (1R,3R)-5-((E)-2-((1S,7αS)-1-((R)-1-(4-ethyl-4-hydroxyhexyloxy)ethyl)-7α-methyldihydro-1H-inden-4(2H, 5H, 6H, 7H, 7αH)-ylidene)ethylidene)-2-methylenecyclohexane-1,3-diol]	0.8	1.1	0.1	EC50 [6]: 1.8 nM; EC50 [7]: 2.5 nM; thrombospondin-1 protein expression [8]: suppress; also recorded: significantly reduced; thrombomodulin protein expression [9]: induce; also recorded: increased
254	43580	C=C1[C@H](O)CC(=C/C=C2\CCCC3(C)C2CCC3[C@@H](C)CSc2cccc(C(C)(C)O)c2)C[C@H]1O (stereo partly drawn) [Vida-43, (1R,3R)-5-((E)-2-(1-((R)-1-(3-(2-hydroxypropan-2-yl)phenylthio)propan-2-yl)-7α-methyldihydro-1H-inden-4(2H, 5H, 6H, 7H, 7αH)-ylidene)ethylidene)-2-methylenecyclohexane-1,3-diol]	6.9	63	–	–
253	49670	C[C@@H](COc1cccc(C(C)(C)O)c1)[C@H]1CC[C@H]2/C(=C/C=C3C[C@@H](O)C4(CC4)[C@H](O)C3)CCC[C@]12C [Vida-57, (4R,8R)-6-((E)-2-(1-((R)-1-(3-(2-hydroxypropan-2-yl)phenoxy)propan-2-yl)-7-methyldihydro-1H-inden-4(2H,5H,6H, 7H,7αH)-ylidene)ethylidene)spiro[2.5]octane-4,8-diol]	36	21	–	–
253	23340	CCC(O)(CC)CCCO[C@H](C)C1CCC2/C(=C/C=C3C[C@@H](O)C4(CC4)[C@H](O)C3)CCCC21C (stereo partly drawn) [Vida-20, (4R,8R)-6-((E)-2-((1S,7αS)-1-((R)-1-(4-ethyl-4-hydroxyhexyloxy)ethyl)-7α-methyldihydro-1H-inden-4(2H, 5H, 6H, 7H, 7αH)-ylidene)ethylidene)spiro[2.5]octane-4,8-diol]	6.7	1.6	1	–
254	25720	C=C1[C@H](O)CC(=C/C=C2\CCCC3(C)C2CCC3[C@@H](C)COc2cccc(C(C)(C)O)c2)C[C@H]1O (stereo partly drawn) [Vida-37, (1R,3R)-5-((E)-2-(1-((R)-1-(3-(2-hydroxypropan-2-yl)phenoxy)propan-2-yl)-7α-methyldihydro-1H-inden-4(2H, 5H, 6H, 7H, 7αH)-ylidene)ethylidene)-2-methylenecyclohexane-1,3-diol]	6.1	12	10	–

Structure (SMILES)	maximal absorbance wavelength [3] [nm]	extinction coefficient [3]	EC50 [1] [nM]	EC50 [2] [nM]	dose at which compound starts to raise serum Ca [5] [µg/kg]	also measured
C[C@@H](OC[C@H](C)C(C)(C)O)C1CCC2/C(=C/C=C3C[C@@H](O)C4(CC4)[C@H](O)C3)CCCC21C (stereo partly drawn) [Vida-4, (4R,8R)-6-((E)-2-((3αS,7αS)-1-((R)-1-((S)-3-hydroxy-2,3-dimethylbutoxy)ethyl)-7α-methyldihydro-1H-inden-4(2H, 5H, 6H, 7H, 7αH)-ylidene)ethylidene) spiro[2.5]octane-4,8-diol]	253	23610	190	31	–	fold less potent in raising serum Ca than Vida-1 ([5]; i.p. dosing, FIG. 4): at least 100 fold
C[C@@H](OCCC(C)(C)O)C1CCC2/C(=C/C=C3C[C@@H](O)C4(CC4)[C@H](O)C3)CCCC21C (stereo partly drawn) [Vida-1, (4R,8R)-6-((E)-2-((1S,7αS)-1-((R)-1-(3-hydroxy-3-methylbutoxy)ethyl)-7α-methyldihydro-1H-inden-4(2H, 5H, 6H, 7H, 7αH)-ylidene)ethylidene)spiro[2.5]octane-4,8-diol]	253	29550	69	22	0.01	–
